Laboratory results as given in PubChem BioAssay AID1259407 (Chemical Carcinogenesis Research Information System (CCRIS), 2018).
The source made the active and inactive calls. No rule for the calls is given here.

Test system: CCRIS mutagenicity, Ames/micronucleus/aberration tests
Experiment: CCRIS mutagenicity studies
[1] = Test System: AMES SALMONELLA TYPHIMURIUM, Strain/Indicator: TA98, Metabolic Activation: NONE, Method: PREINCUBATION
[2] = Test System: AMES SALMONELLA TYPHIMURIUM, Strain/Indicator: TA98, Metabolic Activation: RAT, LIVER, S-9, AROCLOR 1254, Method: PREINCUBATION
[3] = Test System: AMES SALMONELLA TYPHIMURIUM, Strain/Indicator: TA100, Metabolic Activation: NONE, Method: PREINCUBATION
[4] = Test System: AMES SALMONELLA TYPHIMURIUM, Strain/Indicator: TA100, Metabolic Activation: RAT, LIVER, S-9, AROCLOR 1254, Method: PREINCUBATION
[5] = Test System: AMES SALMONELLA TYPHIMURIUM, Strain/Indicator: TA102, Metabolic Activation: NONE, Method: PREINCUBATION
[6] = Test System: AMES SALMONELLA TYPHIMURIUM, Strain/Indicator: TA102, Metabolic Activation: RAT, LIVER, S-9, AROCLOR 1254, Method: PREINCUBATION
[7] = Test System: AMES SALMONELLA TYPHIMURIUM, Strain/Indicator: TA100, Metabolic Activation: NONE, Method: STANDARD PLATE
[8] = Test System: AMES SALMONELLA TYPHIMURIUM, Strain/Indicator: TA100, Metabolic Activation: S-9, Method: STANDARD PLATE
[9] = Test System: AMES SALMONELLA TYPHIMURIUM, Strain/Indicator: TA1537, Metabolic Activation: NONE, Method: STANDARD PLATE
[10] = Test System: AMES SALMONELLA TYPHIMURIUM, Strain/Indicator: TA98, Metabolic Activation: RAT, LIVER, S-9, AROCLOR 1254, Method: STANDARD PLATE
[11] = Test System: AMES SALMONELLA TYPHIMURIUM, Strain/Indicator: TA98, Metabolic Activation: NONE, Method: STANDARD PLATE
[12] = Test System: AMES SALMONELLA TYPHIMURIUM, Strain/Indicator: TA100, Metabolic Activation: RAT, LIVER, S-9, AROCLOR 1254, Method: STANDARD PLATE
[13] = Test System: AMES SALMONELLA TYPHIMURIUM, Strain/Indicator: TA97, Metabolic Activation: NONE, Method: STANDARD PLATE
[14] = Test System: AMES SALMONELLA TYPHIMURIUM, Strain/Indicator: TA102, Metabolic Activation: NONE, Method: STANDARD PLATE

`Cc1nccc2c1[nH]c1ccccc12` was tested, and the mutagenic call (Test System: AMES SALMONELLA TYPHIMURIUM, Strain/Indicator: TA97, Metabolic Activation: NONE, Method: PREINCUBATION) was “active; positive”, the mutagenic call (Test System: AMES SALMONELLA TYPHIMURIUM, Strain/Indicator: TA97, Metabolic Activation: RAT, LIVER, S-9, AROCLOR 1254, Method: PREINCUBATION) was “inactive; negative” and the mutagenic call [1] was “inactive; negative”. For the same compound, the mutagenic call [2] was “inactive; negative”, the mutagenic call [3] was “inactive; negative” and the mutagenic call [4] was “inactive; negative”. The mutagenic call [5] was “inactive; negative” and the mutagenic call [6] was “inactive; negative”.

With `CCCC(=O)Nc1snc2ccc(Cl)cc12` the mutagenic call [7] was “inactive; negative”, the mutagenic call [8] was “inactive; negative” and the mutagenic call [9] was “inactive; negative”. For the same compound, the mutagenic call (Test System: AMES SALMONELLA TYPHIMURIUM, Strain/Indicator: TA1537, Metabolic Activation: S-9, Method: STANDARD PLATE) was “inactive; negative”.

With `OC1CC=Cc2c1cc1ccc3cccc4ccc2c1c34` (configuration not stated) the mutagenic call [10] was “active; positive”.

`CCc1cccc(CC)c1N` was tested, and the mutagenic call [1] was “inactive; negative”, the mutagenic call [11] was “inactive; negative” and the mutagenic call (Test System: AMES SALMONELLA TYPHIMURIUM, Strain/Indicator: TA98, Metabolic Activation: RAT, LIVER, MICROSOMES, PHENOBARBITAL, Method: PREINCUBATION) was “inactive; negative”. For the same compound, the mutagenic call [10] was “active; positive”, the mutagenic call [3] was “inactive; negative” and the mutagenic call [7] was “inactive; negative”. For the same compound, the mutagenic call (Test System: AMES SALMONELLA TYPHIMURIUM, Strain/Indicator: TA100, Metabolic Activation: RAT, LIVER, MICROSOMES, PHENOBARBITAL, Method: PREINCUBATION) was “inactive; negative”, the mutagenic call [12] was “active; positive” and the mutagenic call (Test System: Ames Salmonella typhimurium, Strain/Indicator: TA97, Metabolic Activation: None, Method: Suspension) was “active; positive”. The mutagenic call (Test System: Ames Salmonella typhimurium, Strain/Indicator: TA98, Metabolic Activation: None, Method: Suspension) was “active; positive”, the mutagenic call (Test System: Ames Salmonella typhimurium, Strain/Indicator: TA100, Metabolic Activation: None, Method: Preincubation) was “inactive; negative” and the mutagenic call (Test System: Ames Salmonella typhimurium, Strain/Indicator: TA1535, Metabolic Activation: None, Method: Suspension) was “inactive; negative”. For the same compound, the mutagenic call (Test System: Ames Salmonella typhimurium, Strain/Indicator: TA1537, Metabolic Activation: None, Method: Suspension) was “inactive; negative” and the mutagenic call (Test System: Ames Salmonella typhimurium, Strain/Indicator: TA1538, Metabolic Activation: None, Method: Suspension) was “active; positive (weak response; no dose response)”.

For `O=[N+]([O-])c1cccc(OS(=O)(=O)c2cccc3cccnc23)c1`, the mutagenic call [11] was “inactive; negative”, the mutagenic call [10] was “active; positive” and the mutagenic call [7] was “inactive; negative”. The mutagenic call [12] was “active; positive”, the mutagenic call (Test System: AMES SALMONELLA TYPHIMURIUM, Strain/Indicator: TA1535, Metabolic Activation: NONE, Method: STANDARD PLATE) was “inactive; negative” and the mutagenic call (Test System: AMES SALMONELLA TYPHIMURIUM, Strain/Indicator: TA1535, Metabolic Activation: RAT, LIVER, S-9, AROCLOR 1254, Method: STANDARD PLATE) was “inactive; negative”. The mutagenic call [9] was “inactive; negative” and the mutagenic call (Test System: AMES SALMONELLA TYPHIMURIUM, Strain/Indicator: TA1537, Metabolic Activation: RAT, LIVER, S-9, AROCLOR 1254, Method: STANDARD PLATE) was “inactive; negative”.

In the case of `c1ccc2c(c1)-c1cc3ccccc3cc1[C@H]1O[C@@H]21`, the mutagenic call [1] is reported as “active; positive”, the mutagenic call [11] is reported as “active; positive” and the mutagenic call [7] is reported as “active; positive”. The mutagenic call (Test System: CHINESE HAMSTER V-79, Strain/Indicator: V-79/8-AZAGUANINE, Metabolic Activation: NONE, Method: STANDARD PLATE) was “active; positive” and the mutagenic call (Test System: UDS HUMAN FIBROBLASTS, Strain/Indicator: THY INCORP (NON-S-PHASE), Metabolic Activation: NONE, Method: AUTORADIOGRAPHY) was “active; positive”.

For `CCC(CCCC(=O)O)COC(=O)c1ccccc1C(=O)O` (configuration not stated), the mutagenic call [13] was “inactive; negative”, the mutagenic call (Test System: AMES SALMONELLA TYPHIMURIUM, Strain/Indicator: TA97, Metabolic Activation: RAT, LIVER, S-9, AROCLOR 1254, Method: STANDARD PLATE) was “inactive; negative” and the mutagenic call (Test System: AMES SALMONELLA TYPHIMURIUM, Strain/Indicator: TA97, Metabolic Activation: RAT, LIVER, S-9, DI(2-ETHYLHEXYL)PHTHALATE, Method: STANDARD PLATE) was “inactive; negative”. For the same compound, the mutagenic call [11] was “inactive; negative”, the mutagenic call [10] was “inactive; negative” and the mutagenic call (Test System: AMES SALMONELLA TYPHIMURIUM, Strain/Indicator: TA98, Metabolic Activation: RAT, LIVER, S-9, DI(2-ETHYLHEXYL)PHTHALATE, Method: STANDARD PLATE) was “inactive; negative”. The mutagenic call [7] was “inactive; negative”, the mutagenic call [12] was “inactive; negative” and the mutagenic call (Test System: AMES SALMONELLA TYPHIMURIUM, Strain/Indicator: TA100, Metabolic Activation: RAT, LIVER, S-9, DI(2-ETHYLHEXYL)PHTHALATE, Method: STANDARD PLATE) was “inactive; negative”. For the same compound, the mutagenic call [14] was “inactive; negative”, the mutagenic call (Test System: AMES SALMONELLA TYPHIMURIUM, Strain/Indicator: TA102, Metabolic Activation: RAT, LIVER, S-9, AROCLOR 1254, Method: STANDARD PLATE) was “inactive; negative” and the mutagenic call (Test System: AMES SALMONELLA TYPHIMURIUM, Strain/Indicator: TA102, Metabolic Activation: RAT, LIVER, S-9, DI(2-ETHYLHEXYL)PHTHALATE, Method: STANDARD PLATE) was “inactive; negative”.

`Oc1ccc(O)c2ccccc12` was tested, and the mutagenic call (Test System: AMES SALMONELLA TYPHIMURIUM, Strain/Indicator: TA104, Metabolic Activation: NONE, Method: PREINCUBATION) was “active; positive” and the mutagenic call (Test System: AMES SALMONELLA TYPHIMURIUM, Strain/Indicator: TA2637, Metabolic Activation: RAT, LIVER, S-9, PHENOBARBITAL AND 5,6-BENZOFLAVONE, Method: PREINCUBATION) was “active; positive”.

In the case of `CCC(=O)C(C)=O`, the mutagenic call [1] is reported as “inactive; negative”, the mutagenic call [2] is reported as “inactive; negative” and the mutagenic call [3] is reported as “inactive; negative”. The mutagenic call [4] was “inactive; negative”, the mutagenic call [5] was “inactive; negative” and the mutagenic call [6] was “inactive; negative”.

In the case of `CC(=O)O[C@H]1C(=O)[C@@]2(C)[C@H]([C@H](OC(=O)c3ccccc3)[C@]3(O)C[C@H](OC(=O)[C@H](O)[C@@H](NC(=O)c4ccccc4)c4ccccc4)C(C)=C1C3(C)C)[C@]1(OC(C)=O)CO[C@@H]1C[C@@H]2O`, the mutagenic call (End Point: IN VITRO CHROMOSOMAL ABERRATIONS, Test System: PERIPHERAL HUMAN BLOOD LYMPHOCYTES, Metabolic Activation: NONE) is reported as “active; positive (ploidy changes)”, the mutagenic call (End Point: In vitro micronucleus, Test System: Human lymphoblastoid TK6 cells, Metabolic Activation: None) is reported as “active; positive (p<0.001)” and the mutagenic call (End Point: In vivo micronucleus, Test System: Micronucleated, binucleated and multinucleated hepatocytes, Species: Mouse, Strain/Sex: ddY/Male, Route: Intravenous) is reported as “active; positive for micronucleated, binucleated and multinucleated cells when agent adm”. The mutagenic call [13] was “inactive; negative”, the mutagenic call (Test System: AMES SALMONELLA TYPHIMURIUM, Strain/Indicator: TA97, Metabolic Activation: S-9, Method: STANDARD PLATE) was “inactive; negative” and the mutagenic call [11] was “inactive; negative”. The mutagenic call (Test System: AMES SALMONELLA TYPHIMURIUM, Strain/Indicator: TA98, Metabolic Activation: S-9, Method: STANDARD PLATE) was “inactive; negative”, the mutagenic call [7] was “inactive; negative” and the mutagenic call [8] was “inactive; negative”. For the same compound, the mutagenic call [14] was “inactive; negative”, the mutagenic call (Test System: AMES SALMONELLA TYPHIMURIUM, Strain/Indicator: TA102, Metabolic Activation: S-9, Method: STANDARD PLATE) was “inactive; negative” and the mutagenic call (Test System: Mouse lymphoma, Strain/Indicator: L5178Y (Tk+/Tk-), Metabolic Activation: None, Method: Microwell) was “active; positive”.
